This assay relates to human platelet rich plasma. Kind of assay: ADP induced platelet aggregation test in human platelet rich plasma. The assay is classed as cell-based.

Experimental: The antiplatelet aggregatory activity was measured using human platelet rich plasma as described below, and in Subbiah et al. Brazilian Journal of Medical and Biological Research 1988; 21: 535-538.
Platelet-rich plasma (PRP) was obtained by centrifuging blood collected in 3.8% trisodium citrate (9:1, v/v) from human volunteers or from the blood bank for 15 minutes at 700 rpm. Remaining blood was centrifuged at 2500 rpm for 25 minutes to obtain platelet-poor plasma (PPP). The platelets were quantified with an electronic counter (Coulter Electronics, Inc., Hialeah, Fla.). The platelet count was adjusted to 300,000-350,000/mm^3 with PPP, and 0.45 ml used in each test of aggregation.
ADP (Sigma Chemical Co. St. Louis, Mo.) (0.1 mg/ml), and arachidonic acid (NuCheck Pre, Elysian, Minn.) (1.0 mg/ml in 20 mM Na2CO3) were used as aggregatory agents. Samples were warmed to 37° C. with stirring for approximately two minutes prior to the addition of 50 μl of aggregating agents. Guarana (or its fractions) or caffeine (alone or in combination with catechins) were added before the addition of ADP or arachidonic acid. The change in percentage light transmission was recorded with a dual aggregometer (Chrono-Log Co, Havertown, Pa.) after addition of aggregation agents.

On to `Cn1c(=O)c2c(ncn2C)n(C)c1=O` [caffeine], for which the “platelet aggregation inhibitory activity (in words)” value was “only weakly active”.

These data come from US20010008891A1, “PHARMACEUTICAL COMPOSITIONS COMPRISING A XANTHINE AND A CATECHIN” (priority 1998, published 2001).
